Measurements from patent US20070231838A1, “Method for the assay of rock kinase activity in cells” (priority 2006, published 2007).

Tested on: ROCK kinase
Experiment: Immunoblotting of MYPT1 phosphorylation in Panc-1 cells treated with ROCK inhibitors
Format: cell-based, human
Settings: for rank order of potency for reduction of MYPT1 phosphorylation: 1 h incubation, immunoblotting (FIG. 5A)
Description: FIG. 3: Extraction of cytoskeletal substrates of ROCK1/ROCK2 from Pancd cell extracts: (A) Panc-1 cells were incubated in the presence and absence of 10 μM ROCK inhibitor Y27632 for 1 h followed by lysis in the indicated buffers. Equal fractions of cell lysate were analyzed by immunoblotting for pMYPT1 (T696 or T853), total MYPT1, pMLC (S19) and total MLC. (B) 10 μL aliquots of Panc-1 cell lysate prepared in PROTEOEXTRACT® buffer (or buffer alone for control wells) were diluted in buffer A as indicated prior to addition to MYPT1 antibody-coated ELISA assay plate wells. Quantitation of the extent of MYPT1 (T853) phosphorylation was performed in triplicate assay wells as described in the methods section. Results plotted are mean signal intensities, error bars represent Standard Deviations.
FIG. 4: Time course of reduction of MYPT1 phosphorylation bv ROCK inhibitors in Pancl cells: Panc-1 cells were incubated in the presence and absence of 10 μM ROCK inhibitor Y27632 for the indicated time points followed by lysis in SDS-PAGE sample buffer. Equal fractions of cell lysate were then analyzed by immunoblotting for pMYPT1 (T696 or T853) and total MYPT1 protein.
FIG. 5: Effect of ROCK inhibitors on MYPT1 (T853) phosphorylation in Panc-1 cells: (A) Panc-1 cells were incubated in the presence and absence of the indicated concentrations of ROCK inhibitors H1152, Y27632 or HA1077 for 1 h, followed by lysis in SDS-PAGE sample buffer. Equal fractions of cell lysate were then analyzed by immunoblotting for pMYPT1 (T696 or T853) and total MYPT1 protein. (B) Panc1 cells were grown in 96-well culture plates, and incubated for 1 h with the indicated concentrations of compound ROCK inhibitors H1152, Y27632 or HA1077. Lysates were then prepared in PROTEOEXTRACT® buffer, and analyzed in the pMYPT1 (T853) ELISA assay as described in the Methods section.
Human cancer cell lines were purchased from the American Type Culture Collection (ATCC). Panc-1 cells were grown in Dulbecco's modified Eagle's medium with 2 mM L-glutamine adjusted to contain 3.7 g/L sodium bicarbonate and 4.5 g/L glucose, 10% fetal bovine serum. All other cell lines were grown in media as prescribed by the ATCC, containing 10% FCS.
Lysates were prepared from cultured cells, following a brief rinse in PBS, using several different buffers. Buffer A (50 mM Tris-HCl, pH 7.4, 150 mM NaCl, 10% glycerol, 1% Triton X-100, 0.5 mM EDTA, 1 mM […], […], lmg/ml aprotinin) and buffer B (RIPA buffer: Sigma catalog #R0278, containing protease and phosphatase inhibitor cocktails Sigma catalog #P2850, P5726 P8340) were added to the cells in culture dishes, the cells were scraped from the dish and the lysates transferred to eppendorf tubes and incubated at 4° C. for 20 min. Lysates were then clarified by centrifugation at 10,000 g, and the resulting supernatants were stored at −80° C. prior to the addition of SDS-PAGE sample buffer and analysis by immunoblotting. Alternatively, lysates were prepared by the direct addition of SDS-PAGE sample buffer to the cultures, and samples were prepared for analysis by sonication for 5 min followed by heating to 100° C. for 5 min. Alternatively, lysates were prepared by the addition of PROTEOEXTRACT® solution (complete mammalian proteome extraction kit, Calbiochem, #539779) including 16.5 IU of BENZONASE® (Novagen, Inc., Madison, Wis.) followed by shaking for 30 minutes at room temperature. Samples prepared by this method were either diluted directly into SDS-PAGE sample buffer for analysis by immunoblotting, or were diluted 10-fold in buffer A for analysis in antibody capture ELISA assays. Tumor lysates were prepared using the PROTEOEXTRACT® complete mammalian proteome extraction kit (Calbiochem, #539779). Approximately 300 mg samples of tumor sample were homogenized and dispersed in […] resuspension buffer, then 2.4 mL extraction reagent and 150 μl reducing agent were added and the samples were mixed thoroughly. […]

[1] = 10 μM for 1 h prior to lysis, immunoblotting (FIG. 3)
[2] = 10 μM, time course up to 24 h (FIG. 4)

Structure (SMILES) | rank order of potency for reduction of MYPT1 phosphorylation | level of MYPT1 phosphorylation [1] | total MYPT1 protein content of the extracts [1] | incubation time necessary to maximally reduce steady-state phosphorylation of MYPT1 T696 [2] | time to maximal reduction of steady-state phosphorylation of MYPT1 (T853) [2] [min]
Cc1cncc2cccc(S(=O)(=O)N3CCCNC[C@@H]3C)c12 [H1152] | H1152>Y27632>HA1077 |  |  |  | 
O=S(=O)(c1cccc2cnccc12)N1CCCNCC1 [HA1077] | H1152>Y27632>HA1077 |  |  |  | 
C[C@@H](N)[C@H]1CC[C@H](C(=O)Nc2ccncc2)CC1 [Y27632] | H1152>Y27632>HA1077 | significantly reduced | without affecting significantly | at least 8 hours | 30 to 60
